Measured values from paper PMC10931833, “Simultaneous Purification of Human Interferon Alpha-2b and Serum Albumin Using Bioprivileged Fluorinated Ionic Liquid-Based Aqueous Biphasic Systems” (International Journal of Molecular Sciences, 2024).
Each block holds one compound with its values, some of them ahead of it.

Tests used:
[1] = target: T1, BSA (Bos taurus, UniProt P02769); test: DSC thermal unfolding of BSA in water and aqueous solutions of ABS phase-forming components; type: physicochemical, bovine; details: for Tm / ΔG / ΔHcal / ΔHcal/ΔHvH / ΔHvH / ΔS: 1.0 mg/mL BSA
T1 construct: purchased Millipore Sigma-Aldrich
T1 sequence (P02769 25-607): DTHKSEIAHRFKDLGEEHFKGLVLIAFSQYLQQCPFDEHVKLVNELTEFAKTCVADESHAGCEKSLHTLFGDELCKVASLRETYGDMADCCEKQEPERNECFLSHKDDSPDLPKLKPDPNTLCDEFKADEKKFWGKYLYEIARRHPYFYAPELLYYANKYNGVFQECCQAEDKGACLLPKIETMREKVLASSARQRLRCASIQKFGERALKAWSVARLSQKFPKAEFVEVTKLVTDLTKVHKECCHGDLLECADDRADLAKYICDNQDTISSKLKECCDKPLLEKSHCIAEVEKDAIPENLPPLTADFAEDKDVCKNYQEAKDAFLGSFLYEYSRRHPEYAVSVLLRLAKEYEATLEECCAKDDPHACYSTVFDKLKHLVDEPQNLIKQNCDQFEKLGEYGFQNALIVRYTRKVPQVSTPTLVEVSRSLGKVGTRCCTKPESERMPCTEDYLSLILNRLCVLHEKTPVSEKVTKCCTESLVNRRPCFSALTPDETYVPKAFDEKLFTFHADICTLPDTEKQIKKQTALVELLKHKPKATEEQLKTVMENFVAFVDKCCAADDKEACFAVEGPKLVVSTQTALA
Description: Differential scanning calorimetry (DSC) measurements were performed with Nano DSC equipment, as detailed in Section 3, and used to determine the melting temperature (T m ) and enthalpy ( Δ H) of protein unfolding. DSC analyzes changes in the structure and stability of proteins as thermal transitions at the nanoscale. Using DSC to measure heat capacity as a function of the temperature of a well-studied protein such as BSA provides keen insights into folding and unfolding processes, as well as factors affecting stability. Due to the volume and concentration requirements of the DSC technique, and the constraints in available quantities of IFN- α 2b the DSC experiments on the ABS phase-forming components’ effect on the structural properties of proteins were attained only for BSA.
The T m of BSA, which corresponds to the thermal unfolding transition midpoint, was measured in the absence and presence of the ABS phase-forming components at increasing concentrations (see Figure 1 and Table 2).

[2] = target: T1, BSA; test: Far-UV CD secondary structure of BSA (CONTIN-LL deconvolution); type: physicochemical, bovine; parameters: Regular Alpha Helix / Distorted Alpha Helix / Regular Beta Sheet / Distorted Beta Sheet / Turns / Unordered: unit not given here; details: 1.0 mg/mL BSA, 25 °C
Description: Circular dichroism (CD) is widely used to study the secondary structures of proteins, peptides and nucleic acids, because it requires a low concentration sample, is a nondestructive method, allows studying a wide range of variables (temperature, pH, etc.), and provides information on the effect of added ligands on protein folding and interactions. Far-UV (190–260 nm) CD spectroscopy was used to assess the IFN- α 2b and BSA secondary structure since the spectra are characteristic of different structural elements.
Circular dichroism (CD) spectra were collected in a 10 mm quartz cuvette and a Chirascan spectropolarimeter (Applied Photophysics, UK) at room temperature. All CD spectra were recorded in the far-UV range of 190 to 260 nm at scan rates of 50 nm/min, with 4 accumulations, and a response time of 3 s; CD spectra were collected. For each CD experiment, two distinct duplicates were acquired and combined. BSA was fixed at 1 mg/mL, solvent concentrations ranging from 0.1 to 200 mM were used, and the spectra were translated to MRE after being expressed in terms of molar ellipticity. Spectral deconvolution was carried out with DichroWeb using the CONTIN-LL deconvolution algorithm with the SMP180 reference set.

Tm ([1]; 0.1 mM component): 74.54 °C
ΔG ([1]; 0.1 mM component): 72.90 kJ/mol
ΔHcal ([1]; 0.1 mM component): 513.1 kJ/mol
ΔHcal/ΔHvH ([1]; 0.1 mM component): 0.946
ΔHvH ([1]; 0.1 mM component): 542.1 kJ/mol
ΔS ([1]; 0.1 mM component): 1.476 KJ/(mol.K)
Tm ([1]; 1 mM component): 75.31 °C
ΔG ([1]; 1 mM component): 61.40 kJ/mol
ΔHcal ([1]; 1 mM component): 422.1 kJ/mol
ΔHcal/ΔHvH ([1]; 1 mM component): 0.987
ΔHvH ([1]; 1 mM component): 427.8 kJ/mol
ΔS ([1]; 1 mM component): 1.210 KJ/(mol.K)
Tm ([1]; 5 mM component): 81.43 °C
ΔG ([1]; 5 mM component): 114.4 kJ/mol
ΔHcal ([1]; 5 mM component): 717.0 kJ/mol
ΔHcal/ΔHvH ([1]; 5 mM component): 1.069
ΔHvH ([1]; 5 mM component): 670.6 kJ/mol
ΔS ([1]; 5 mM component): 2.021 KJ/(mol.K)
Tm ([1]; 10 mM component): 79.02 °C
ΔG ([1]; 10 mM component): 79.80 kJ/mol
ΔHcal ([1]; 10 mM component): 517.5 kJ/mol
ΔHcal/ΔHvH ([1]; 10 mM component): 1.024
ΔHvH ([1]; 10 mM component): 505.2 kJ/mol
ΔS ([1]; 10 mM component): 1.468 KJ/(mol.K)
Tm ([1]; 25 mM component): 72.02 °C
ΔG ([1]; 25 mM component): 46.60 kJ/mol
ΔHcal ([1]; 25 mM component): 336.6 kJ/mol
ΔHcal/ΔHvH ([1]; 25 mM component): 0.992
ΔHvH ([1]; 25 mM component): 339.3 kJ/mol
ΔS ([1]; 25 mM component): 0.973 KJ/(mol.K)
Tm ([1]; 55 mM component): 72.44 °C
ΔG ([1]; 55 mM component): 51.90 kJ/mol
ΔHcal ([1]; 55 mM component): 375.8 kJ/mol
ΔHcal/ΔHvH ([1]; 55 mM component): 0.960
ΔHvH ([1]; 55 mM component): 391.4 kJ/mol
ΔS ([1]; 55 mM component): 1.086 KJ/(mol.K)
Tm ([1]; 120 mM component): 76.32 °C
ΔG ([1]; 120 mM component): 70.70 kJ/mol
ΔHcal ([1]; 120 mM component): 477.1 kJ/mol
ΔHcal/ΔHvH ([1]; 120 mM component): 0.969
ΔHvH ([1]; 120 mM component): 492.3 kJ/mol
ΔS ([1]; 120 mM component): 1.363 KJ/(mol.K)
effect on BSA Tm (DSC) ([1]; tested concentration range vs water): maintained
Distorted Alpha Helix ([2]; 0.1 mM component): 0.207
Distorted Beta Sheet ([2]; 0.1 mM component): 0.028
Regular Alpha Helix ([2]; 0.1 mM component): 0.403
Regular Beta Sheet ([2]; 0.1 mM component): 0.008
Turns ([2]; 0.1 mM component): 0.141
Unordered ([2]; 0.1 mM component): 0.212
Distorted Alpha Helix ([2]; 1 mM component): 0.215
Distorted Beta Sheet ([2]; 1 mM component): 0.023
Regular Alpha Helix ([2]; 1 mM component): 0.419
Regular Beta Sheet ([2]; 1 mM component): 0.000
Turns ([2]; 1 mM component): 0.135
Unordered ([2]; 1 mM component): 0.208
Distorted Alpha Helix ([2]; 5 mM component): 0.209
Distorted Beta Sheet ([2]; 5 mM component): 0.025
Regular Alpha Helix ([2]; 5 mM component): 0.403
Regular Beta Sheet ([2]; 5 mM component): 0.000
Turns ([2]; 5 mM component): 0.136
Unordered ([2]; 5 mM component): 0.227
Distorted Alpha Helix ([2]; 25 mM component): 0.180
Distorted Beta Sheet ([2]; 25 mM component): 0.031
Regular Alpha Helix ([2]; 25 mM component): 0.297
Regular Beta Sheet ([2]; 25 mM component): 0.020
Turns ([2]; 25 mM component): 0.128
Unordered ([2]; 25 mM component): 0.344
Distorted Alpha Helix ([2]; 55 mM component): 0.217
Distorted Beta Sheet ([2]; 55 mM component): 0.021
Regular Alpha Helix ([2]; 55 mM component): 0.390
Regular Beta Sheet ([2]; 55 mM component): 0.000
Turns ([2]; 55 mM component): 0.131
Unordered ([2]; 55 mM component): 0.240
Distorted Alpha Helix ([2]; 90 mM component): 0.202
Distorted Beta Sheet ([2]; 90 mM component): 0.026
Regular Alpha Helix ([2]; 90 mM component): 0.382
Regular Beta Sheet ([2]; 90 mM component): 0.007
Turns ([2]; 90 mM component): 0.136
Unordered ([2]; 90 mM component): 0.247
Distorted Alpha Helix ([2]; 120 mM component): 0.212
Distorted Beta Sheet ([2]; 120 mM component): 0.019
Regular Alpha Helix ([2]; 120 mM component): 0.378
Regular Beta Sheet ([2]; 120 mM component): 0.000
Turns ([2]; 120 mM component): 0.126
Unordered ([2]; 120 mM component): 0.266
Distorted Alpha Helix ([2]; 200 mM component): 0.223
Distorted Beta Sheet ([2]; 200 mM component): 0.024
Regular Alpha Helix ([2]; 200 mM component): 0.411
Regular Beta Sheet ([2]; 200 mM component): 0.000
Turns ([2]; 200 mM component): 0.136
Unordered ([2]; 200 mM component): 0.206
Structure (SMILES): CCCCn1cc[n+](C)c1.O=S(=O)([O-])C(F)(F)F [[C4C1Im][CF3SO3], 1-butyl-3-methylimidazolium trifluoromethanesulfonate]

Structure (SMILES): CCn1cc[n+](C)c1.O=S(=O)([O-])C(F)(F)C(F)(F)C(F)(F)C(F)(F)F [1-ethyl-3-methylimidazolium perfluorobutane sulfonate]
Tm ([1]; 0.1 mM component): 75.55 °C
ΔG ([1]; 0.1 mM component): 72.30 kJ/mol
ΔHcal ([1]; 0.1 mM component): 503.0 kJ/mol
ΔHcal/ΔHvH ([1]; 0.1 mM component): 1.028
ΔHvH ([1]; 0.1 mM component): 489.4 kJ/mol
ΔS ([1]; 0.1 mM component): 1.445 KJ/(mol.K)
Tm ([1]; 1 mM component): 75.62 °C
ΔG ([1]; 1 mM component): 85.40 kJ/mol
ΔHcal ([1]; 1 mM component): 592.2 kJ/mol
ΔHcal/ΔHvH ([1]; 1 mM component): 1.050
ΔHvH ([1]; 1 mM component): 563.8 kJ/mol
ΔS ([1]; 1 mM component): 1.700 KJ/(mol.K)
Tm ([1]; 5 mM component): 80.59 °C
ΔG ([1]; 5 mM component): 125.6 kJ/mol
ΔHcal ([1]; 5 mM component): 797.9 kJ/mol
ΔHcal/ΔHvH ([1]; 5 mM component): 0.967
ΔHvH ([1]; 5 mM component): 825.0 kJ/mol
ΔS ([1]; 5 mM component): 2.255 KJ/(mol.K)
Tm ([1]; 10 mM component): 80.94 °C
ΔG ([1]; 10 mM component): 121.7 kJ/mol
ΔHcal ([1]; 10 mM component): 768.1 kJ/mol
ΔHcal/ΔHvH ([1]; 10 mM component): 1.061
ΔHvH ([1]; 10 mM component): 724.1 kJ/mol
ΔS ([1]; 10 mM component): 2.168 KJ/(mol.K)
Tm ([1]; 25 mM component): 82.57 °C
ΔG ([1]; 25 mM component): 136.1 kJ/mol
ΔHcal ([1]; 25 mM component): 837.9 kJ/mol
ΔHcal/ΔHvH ([1]; 25 mM component): 0.972
ΔHvH ([1]; 25 mM component): 861.6 kJ/mol
ΔS ([1]; 25 mM component): 2.354 KJ/(mol.K)
Tm ([1]; 55 mM component): 84.28 °C
ΔG ([1]; 55 mM component): 166.9 kJ/mol
ΔHcal ([1]; 55 mM component): 1001.0 kJ/mol
ΔHcal/ΔHvH ([1]; 55 mM component): 1.105
ΔHvH ([1]; 55 mM component): 905.7 kJ/mol
ΔS ([1]; 55 mM component): 2.798 KJ/(mol.K)
Tm ([1]; 120 mM component): 86.15 °C
ΔG ([1]; 120 mM component): 142.2 kJ/mol
ΔHcal ([1]; 120 mM component): 830.9 kJ/mol
ΔHcal/ΔHvH ([1]; 120 mM component): 1.051
ΔHvH ([1]; 120 mM component): 790.9 kJ/mol
ΔS ([1]; 120 mM component): 2.310 KJ/(mol.K)
increase of BSA Tm (DSC) ([1]; FIL at the highest concentration (120 mM) vs water): approximately 11 °C
Distorted Alpha Helix ([2]; 0.1 mM component): 0.206
Distorted Beta Sheet ([2]; 0.1 mM component): 0.029
Regular Alpha Helix ([2]; 0.1 mM component): 0.407
Regular Beta Sheet ([2]; 0.1 mM component): 0.000
Turns ([2]; 0.1 mM component): 0.142
Unordered ([2]; 0.1 mM component): 0.216
Distorted Alpha Helix ([2]; 1 mM component): 0.210
Distorted Beta Sheet ([2]; 1 mM component): 0.025
Regular Alpha Helix ([2]; 1 mM component): 0.401
Regular Beta Sheet ([2]; 1 mM component): 0.000
Turns ([2]; 1 mM component): 0.137
Unordered ([2]; 1 mM component): 0.226
Distorted Alpha Helix ([2]; 5 mM component): 0.207
Distorted Beta Sheet ([2]; 5 mM component): 0.027
Regular Alpha Helix ([2]; 5 mM component): 0.406
Regular Beta Sheet ([2]; 5 mM component): 0.007
Turns ([2]; 5 mM component): 0.138
Unordered ([2]; 5 mM component): 0.215
Distorted Alpha Helix ([2]; 25 mM component): 0.197
Distorted Beta Sheet ([2]; 25 mM component): 0.035
Regular Alpha Helix ([2]; 25 mM component): 0.384
Regular Beta Sheet ([2]; 25 mM component): 0.023
Turns ([2]; 25 mM component): 0.149
Unordered ([2]; 25 mM component): 0.212
Distorted Alpha Helix ([2]; 55 mM component): 0.210
Distorted Beta Sheet ([2]; 55 mM component): 0.026
Regular Alpha Helix ([2]; 55 mM component): 0.402
Regular Beta Sheet ([2]; 55 mM component): 0.000
Turns ([2]; 55 mM component): 0.140
Unordered ([2]; 55 mM component): 0.223
Distorted Alpha Helix ([2]; 90 mM component): 0.207
Distorted Beta Sheet ([2]; 90 mM component): 0.026
Regular Alpha Helix ([2]; 90 mM component): 0.382
Regular Beta Sheet ([2]; 90 mM component): 0.004
Turns ([2]; 90 mM component): 0.142
Unordered ([2]; 90 mM component): 0.239
Distorted Alpha Helix ([2]; 120 mM component): 0.206
Distorted Beta Sheet ([2]; 120 mM component): 0.032
Regular Alpha Helix ([2]; 120 mM component): 0.405
Regular Beta Sheet ([2]; 120 mM component): 0.014
Turns ([2]; 120 mM component): 0.147
Unordered ([2]; 120 mM component): 0.196
Distorted Alpha Helix ([2]; 200 mM component): 0.183
Distorted Beta Sheet ([2]; 200 mM component): 0.025
Regular Alpha Helix ([2]; 200 mM component): 0.316
Regular Beta Sheet ([2]; 200 mM component): 0.014
Turns ([2]; 200 mM component): 0.108
Unordered ([2]; 200 mM component): 0.354
